Data from patent publication US9522928B2, “Mannosylated compounds useful for the prevention and the treatment of infectious diseases” (UNIVERSITE DE STRASBOURG, priority 2011, dated 2016).
Entries after “also recorded” stand apart in the source; their conditions may differ. Where two headings read alike, the source gives them in different places.

Legend:
[1] = target: T1, DC-SIGN CRD (Homo sapiens, UniProt Q9NNX6); experiment: Surface plasmon resonance (SPR) binding to immobilised DC-SIGN CRD; conditions: Kd=koff/kon
T1 construct: human DC-SIGN (Lys62-Ala404, from R§D Systems); purchased R&D Systems ('R§D Systems' [sic])
T1 sequence (Q9NNX6 62-404): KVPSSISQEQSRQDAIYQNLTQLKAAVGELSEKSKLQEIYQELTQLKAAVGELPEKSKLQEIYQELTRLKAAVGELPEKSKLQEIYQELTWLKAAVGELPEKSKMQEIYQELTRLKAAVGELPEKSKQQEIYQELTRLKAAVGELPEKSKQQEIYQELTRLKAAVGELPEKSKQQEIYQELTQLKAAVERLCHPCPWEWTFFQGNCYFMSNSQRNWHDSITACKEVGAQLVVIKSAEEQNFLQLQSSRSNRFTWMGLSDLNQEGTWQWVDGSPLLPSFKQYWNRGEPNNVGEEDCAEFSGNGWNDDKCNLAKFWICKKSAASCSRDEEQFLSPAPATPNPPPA
Description: SPR experiments were performed using a Biacore 3000. […] Biosensor assays were performed with HEPES-buffered saline (10 mM HEPES, 150 mM sodium chloride, pH 7.4) containing 0.005% surfactant P20 and 5 mM CaCl2 as a running buffer. All binding experiments were carried out at 25° C. with a constant flow rate of 20 μl/min. The different compounds dissolved in the running buffer (0.39 to 50 μM) were injected for 3 min, followed by a dissociation phase of 3 min. The sensor chip surface was regenerated after each experiment by injecting 10 μL of EDTA 0.5 M pH 8.0. A simple channel activated by EDC/NHS and deactivated with ethanolamine was used as control. The kinetic parameters were calculated using the BlAeval 4.1 software. Analysis was performed using the simple Langmuir binding model with separate ka/kd (kon/koff). The specific binding profiles were obtained after subtracting the response signal from the control channel and from blank-buffer injection. The fitting to each model was judged by the chi square value and randomness of residue distribution compared to the theoretical model (Langmuir binding 1:1).
The binding affinity of mannoside derivatives for the carbohydrate recognition domain (CRD) of DC-SIGN was assessed by surface plasmon resonance (SPR).
A CM5 sensor chip was functionalized with the DC-SIGN CRD, and increasing concentrations of the various compounds, mannan as a positive control and octaethyleneglycol (OEG) as a negative control, were injected over the chip surface. The association (kon) and dissociation (koff) rate constants and the resulting dissociation equilibrium constant (Kd=koff/kon) for each assessed compound were determined (see Table 1 hereunder).

[2] = tested on: HIV-1 R5; experiment: HIV-1 R5 trans-infection of MAGI-CCR5 cells mediated by DCs; format: cell-based
Description: ManC1, […] (comparative) and compounds of the invention (ManC24, ManC17, TriManC24, TriDiManC24, TriManinsatC24 and ManinsatC24) were serially diluted in water. Human DCs (1×10^5 in 200 μl ) were pre-treated with different concentrations of compounds, or mannan (Sigma) or culture medium alone, in RPMI 1640 medium containing 10% FBS for 45 min at 37° C., prior infection with HIV-1 (100 ng of p24Gag) for 3 h. Excess free virus and molecules were removed by three washes. DCs were then cocultured with MAGI -CCR5 cells (1×10^5) at 37° C. plated in a 48-well plate. After two days, viral infection of MAGI-CCR5 cells was quantitated following beta-galactosidase assays and enumerating blue cells by light microscopy.
The IC50 were determined by serial dilution of each compound. The trans-infection assays were repeated a minimum of three times, and the IC50 determined using KaleidaGraph.
To investigate the ability of the compounds of the invention to inhibit HIV-1 trans infection, we chose to infect human DCs in order to best mimic in vivo conditions. Human DCs were exposed to different compounds (namely, Mannan (control), ManC1 (comparative), ManC11 (comparative), ManC17, ManC24, TriManC24, TriDiManC24, ManinsatC24 and TriManinsatC24) for 45 min at 37° C., before inoculation with HIV-1 (strains R5 and X4) for 3 hours. After extensive washings to remove unbound virions and mannosides, DCs were then co-cultured with MAGI-CCR5 cells. This procedure allows precise quantification of HIV-1 replication in reporter MAGI-CCR5 cells by detection of beta-galactosidase activity. These cells express an integrated copy of the HIV long terminal repeat (LTR) fused to the beta-galactosidase reporter gene, and express the CD4 receptor and the CCR5 and CXCR4 co-receptors, required for entry of HIV-1 R5 and X4 respectively. Upon viral entry leading to viral Tat expression and activation of the LTR, these cells permit quantification of HIV trans-infection after two days.

[3] = Critical micelle concentration (CMC), pyrene fluorescent probe; format: physicochemical; conditions: in water
Description: DiManinsatC24 was prepared according a procedure similar to that used for the preparation of TriDiManC24 except that: • pentacosanoic acid was replaced by 10,12-pentacosadiynoic acid, and • before the coupling with 10,12-pentacosadiynoic acid, the benzyl groups of compound 33 were replaced by acetyl group so as to provide compound 108 (as illustrated in FIG. 3E). ^1H NMR δ(ppm) (MeOD, 400 MHz) 4.87 (s, 3H), 4.73 (s, 3H), 3.64-3.50 (m, 14H), 3.46-3.20 (m, 76H), 2.97-2.93 (m, 6H), 2.33 (t, 6H, J=6.8 Hz), 2.09-1.96 (m, 6H), 1.08-1.05 (m, 32H), 0.66 (t, 3H, J=6.8 Hz). ^13C NMR δ (ppm) (MeOD, 100 MHz) 173.7, 168.8, 104.2, 101.2, 80.6, 80.4, 75.1, 74.7, 72.5, 72.2, 72.1, 71.9, 71.8, 71.7, 71.6, 71.4, 69.4, 69.1, 68.9, 68.7, 68.6, 68.0, 63.2, 63.1, 42.2, 37.0, 34.8, 33.7, 33.1, 30.8, 30.7, 30.6, 30.5, 30.4, 30.2, 29.5, 28.1, 27.0, 26.0, 23.7, 19.7, 14.4. […] The hydrodynamic diameters of micelles of glycolipids were measured in water using a Zetasizer Nano ZS system (Malvern Instruments). The CMCs were measured using pyrene as an extrinsic fluorescent probe and were carried out as described (Perino et al., 2011). […] Fluorescent emission of pyrene was measured at 25° C. using a Fluorolog spectrofluorometer (Jobin Yvon, Horiba). The intensities of fluorescence emission were determined at 374 nm (I374) and at 383 nm (I383), with an excitation at a 339 nm wavelength. […]

[4] = tested on: HIV-1 (R5 strain); experiment: HIV-1 cis-infection and replication in DCs (p24Gag ELISA); format: cell-based; conditions: 10 and 100 μM, p24Gag in supernatant
Description: Human monocyte-derived dendritic cells (2×10^5; 300 μL) in RPMI 1640 medium containing 10% FBS were pre-treated with either anti-DC-SIGN antibodies (clone AZND1, Beckman-Coulter; 10 μg/mL) or compounds TriManC24 and TriManC24insat (10 and 100 μM) for 30 min at 37° C., before inoculation with HIV-1 (R5 strain; 100 ng of p24Gag). After 3 h, cells were pelleted and extensively washed to remove excess virus and compounds. On day 2, 4 and 7 after infection, cells were pelleted, an aliquot of the supernatant was removed and kept at −20° C., and half of the supernatant was replaced with fresh medium. Viral replication was monitored by measuring p24Gag levels in the culture supernatant by an enzyme-linked immunosorbent assay (ELISA, Innogenetics). […] As shown in the case of Dengue virus, the compounds of the invention may also interfere with HIV cis-infection. […] Discussion

[5] = tested on: Dengue virus 2 (DV2); experiment: Dengue virus (DV2) cis-infection of human DCs; format: cell-based; conditions: for percentage of infected DCs: 48 hours
Description: Compounds of the invention (TriManC24, TriManinsatC24) were serially diluted in water. Human DCs (2.5×10^5 in 200 μl) in 48-well plates were pre-treated with different concentrations of compounds or culture medium alone, in RPMI 1640 medium […] for 30 min at 37° C. They were exposed to DV-2 at a multiplicity of infection of 1.0, for 2 h at 37° C. Cells were washed and cultured in complete RPMI medium (condition 1) or in complete medium containing the tested compounds (TriManC24, TriMannsatC24) (condition 2). After 48 h, supernatants were titered and cells were subjected to intracellular detection of viral antigens. DCs were fixed with 4% (v/v) paraformaldehyde and permeabilized with 0.1% (v/v) Triton X-100 for 3 min at room temperature. After washing, they were labeled with mouse anti-DV type 2 monoclonal antibody (3H5.1, Millipore) and stained with APC -conjugated rat anti-mouse IgG1. Fluorescence intensity of the cells was analyzed by flow cytometry (FACSCalibur, Becton Dickinson), using the Cell Quest Pro software.
There are four different dengue serotypes (1-4), and we have used DV type 2 (DV2) to further investigate the ability of the compounds of the invention (TriManC24 and TriManinsatC24) to inhibit the infection of human DCs. These cells were pre-treated with different concentrations of compounds or culture medium alone, for 30 min at 37° C. They were then exposed to DV2 for 2 hours at 37° C. Cells were washed to remove excess virions and compounds, and further cultured either in the absence (condition 1) or in the presence (condition 2) of the tested compounds. After 48 hours, cells were subjected to intracellular detection of viral antigens, and supernatants were titrated (not shown). […] FIG. 3A and FIG. 3B show the percentage of infected DCs when incubated with distinct concentrations of TriManinsatC24 in condition 1 and in condition 2, respectively. The histograms clearly show the protecting effects of TriManinsatC24, in particular in condition 2 wherein TriManinsatC24 at 10, 50 and 100 μM enabled the percentage of infected DCs to be reduced down to 40%, 20% and 2% respectively.

CCCCCCCCCCCCCCCCCCCCCCCCC(=O)NC(COCCC(=O)NCCOCCOCCOCCOC1OC(CO)C(O)C(O)C1OC1OC(CO)C(O)C(O)C1O)(COCCC(=O)NCCOCCOCCOCCOC1OC(CO)C(O)C(O)C1OC1OC(CO)C(O)C(O)C1O)COCCC(=O)NCCOCCOCCOCCOC1OC(CO)C(O)C(O)C1OC1OC(CO)C(O)C(O)C1O (centres unmarked) [TriDiManC24]
KD (μM) [1]: low micromolar range
Kd [1]: 3250 nM
KD (μM) ([1]; listed as TriDimanC24): Sub-micromolar
residual level of trans-infection [2]: 40%
ability to form micelles (in words) [3]: unable to form micelles; also recorded: failed to form micelles

CCCCCCCCCCCCC#CC#CCCCCCCCCC(=O)NC(COCCC(=O)NCCOCCOCCOCCOC1OC(CO)C(O)C(O)C1O)(COCCC(=O)NCCOCCOCCOCCOC1OC(CO)C(O)C(O)C1O)COCCC(=O)NCCOCCOCCOCCOC1OC(CO)C(O)C(O)C1O (centres unmarked) [TriManinsatC24]
Kd [1]: 470 nM
inhibition of HIV-1 cis-infection / replication in DCs (in words) [4]: inhibit
inhibition of HIV-1 cis-infection / replication in DCs (in words) ([4]; listed as TriManC24insat): decreases the amount of HIV R5 replication
inhibition of Dengue virus infection of DCs (in words) [5]: able to inhibit the direct infection of DCs by Dengue virus
percentage of infected DCs ([5]; condition 2, 10 μM): 40%
percentage of infected DCs ([5]; condition 2, 50 μM): 20%
percentage of infected DCs ([5]; condition 2, 100 μM): 2%
residual level of trans-infection ([2]; HIV-1 R5, highest concentrations, relative to medium alone): 2%
inhibition of HIV-1 trans-infection (in words) ([2]; HIV-1 R5 where stated): almost fully blocked HIV trans-infection at the highest concentrations
